Measurements: ChEMBL document CHEMBL4507295 (2021)

Tests used:
[1] = target: Serine/threonine-protein kinase B-raf (Homo sapiens) (UniProt P15056); settings: Compound concentration 1000.0 nM
[2] = target: G protein-coupled receptor kinase 4 (Homo sapiens) (UniProt P32298); settings: Compound concentration 1000.0 nM
[3] = target: Serine/threonine-protein kinase 25 (Homo sapiens) (UniProt O00506); settings: Compound concentration 1000.0 nM
[4] = tested on: Hepatocyte growth factor receptor (Homo sapiens), P08581 [M1250T]; settings: Compound concentration 1000.0 nM
[5] = target: BMP-2-inducible protein kinase (Homo sapiens) (UniProt Q9NSY1); settings: Compound concentration 1000.0 nM
[6] = target: Phosphatidylinositol 4-phosphate 5-kinase type-1 alpha (Homo sapiens) (UniProt Q99755); settings: Compound concentration 1000.0 nM
[7] = target: Activin receptor type-1-like (Homo sapiens) (UniProt P37023); settings: Compound concentration 1000.0 nM
[8] = target: Serine/threonine-protein kinase ULK2 (Homo sapiens) (UniProt Q8IYT8); settings: Compound concentration 1000.0 nM
Sequence of Serine/threonine-protein kinase ULK2 (Homo sapiens) (Q8IYT8 whole entry): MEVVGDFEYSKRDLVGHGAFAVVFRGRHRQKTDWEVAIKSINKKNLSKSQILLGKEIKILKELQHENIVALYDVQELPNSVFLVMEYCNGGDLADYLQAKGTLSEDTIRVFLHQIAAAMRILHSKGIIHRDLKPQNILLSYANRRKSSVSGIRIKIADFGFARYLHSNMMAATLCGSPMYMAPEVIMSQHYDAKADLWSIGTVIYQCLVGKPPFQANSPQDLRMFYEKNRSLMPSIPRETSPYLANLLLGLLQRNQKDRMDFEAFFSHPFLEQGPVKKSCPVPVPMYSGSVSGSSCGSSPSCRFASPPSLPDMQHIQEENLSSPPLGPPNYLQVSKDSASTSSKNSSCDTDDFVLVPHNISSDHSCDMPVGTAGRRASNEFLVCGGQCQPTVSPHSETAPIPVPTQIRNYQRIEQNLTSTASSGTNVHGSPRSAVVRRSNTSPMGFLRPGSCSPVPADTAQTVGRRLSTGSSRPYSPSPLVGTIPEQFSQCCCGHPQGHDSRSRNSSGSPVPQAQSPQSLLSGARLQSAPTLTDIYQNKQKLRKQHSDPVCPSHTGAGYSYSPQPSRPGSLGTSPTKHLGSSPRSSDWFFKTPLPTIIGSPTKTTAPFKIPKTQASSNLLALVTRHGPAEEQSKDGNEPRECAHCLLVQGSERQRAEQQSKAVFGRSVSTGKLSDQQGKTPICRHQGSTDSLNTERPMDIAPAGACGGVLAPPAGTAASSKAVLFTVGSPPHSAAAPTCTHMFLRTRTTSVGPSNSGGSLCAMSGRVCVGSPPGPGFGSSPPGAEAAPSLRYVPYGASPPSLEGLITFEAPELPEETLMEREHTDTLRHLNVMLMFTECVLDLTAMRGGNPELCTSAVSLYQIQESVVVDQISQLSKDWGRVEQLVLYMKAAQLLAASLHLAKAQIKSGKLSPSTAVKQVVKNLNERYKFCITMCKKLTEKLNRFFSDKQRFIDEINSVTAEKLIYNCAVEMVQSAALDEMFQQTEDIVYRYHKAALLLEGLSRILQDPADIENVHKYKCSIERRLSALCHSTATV

[9] = target: Dual specificity mitogen-activated protein kinase kinase 4 (Homo sapiens) (UniProt P45985); settings: Compound concentration 1000.0 nM
[10] = target: Serine/threonine-protein kinase BRSK1 (Homo sapiens) (UniProt Q8TDC3); settings: Compound concentration 1000.0 nM
Sequence of Serine/threonine-protein kinase BRSK1 (Homo sapiens) (Q8TDC3 whole entry): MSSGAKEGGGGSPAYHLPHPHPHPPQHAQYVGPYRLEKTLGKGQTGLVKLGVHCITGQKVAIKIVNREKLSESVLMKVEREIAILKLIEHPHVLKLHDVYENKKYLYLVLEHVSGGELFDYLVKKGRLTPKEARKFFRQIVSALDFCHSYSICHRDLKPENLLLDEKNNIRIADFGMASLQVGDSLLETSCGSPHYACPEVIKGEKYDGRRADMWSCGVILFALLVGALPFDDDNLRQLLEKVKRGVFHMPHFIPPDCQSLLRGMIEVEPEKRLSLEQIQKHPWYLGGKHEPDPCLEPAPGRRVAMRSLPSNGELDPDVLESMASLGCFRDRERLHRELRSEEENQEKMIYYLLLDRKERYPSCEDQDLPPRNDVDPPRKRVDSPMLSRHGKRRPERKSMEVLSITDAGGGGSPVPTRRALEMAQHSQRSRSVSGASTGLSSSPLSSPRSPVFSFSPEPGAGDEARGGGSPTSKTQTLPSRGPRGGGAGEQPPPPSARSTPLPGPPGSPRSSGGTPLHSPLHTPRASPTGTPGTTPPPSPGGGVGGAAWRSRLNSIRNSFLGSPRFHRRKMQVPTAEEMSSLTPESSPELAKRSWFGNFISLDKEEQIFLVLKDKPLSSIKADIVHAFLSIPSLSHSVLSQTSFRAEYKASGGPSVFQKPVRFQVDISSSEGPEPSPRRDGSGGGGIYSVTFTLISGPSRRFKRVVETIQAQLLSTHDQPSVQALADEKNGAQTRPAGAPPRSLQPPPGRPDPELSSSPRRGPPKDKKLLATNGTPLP

[11] = target: T1, Muscarinic acetylcholine receptor M1 (Homo sapiens) (UniProt P11229); settings: Compound concentration 10.0 uM
T1 sequence (whole entry): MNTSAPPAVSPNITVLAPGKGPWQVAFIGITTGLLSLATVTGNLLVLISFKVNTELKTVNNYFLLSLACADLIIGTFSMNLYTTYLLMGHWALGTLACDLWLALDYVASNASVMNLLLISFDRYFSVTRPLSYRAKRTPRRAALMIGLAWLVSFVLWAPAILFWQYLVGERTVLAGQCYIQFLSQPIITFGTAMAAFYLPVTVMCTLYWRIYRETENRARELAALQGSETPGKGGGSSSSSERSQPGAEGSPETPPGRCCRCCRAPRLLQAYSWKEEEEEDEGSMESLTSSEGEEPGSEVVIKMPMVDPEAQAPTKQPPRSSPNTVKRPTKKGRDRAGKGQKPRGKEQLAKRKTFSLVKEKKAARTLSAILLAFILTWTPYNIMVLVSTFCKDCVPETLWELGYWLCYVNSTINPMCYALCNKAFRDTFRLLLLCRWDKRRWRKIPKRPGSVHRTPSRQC

[12] = target: Mitogen-activated protein kinase kinase kinase 5 (Homo sapiens) (UniProt Q99683); settings: Compound concentration 1000.0 nM
[13] = tested on: Phosphatidylinositol 4,5-bisphosphate 3-kinase catalytic subunit alpha isoform (Homo sapiens), P42336 [H1047Y]; settings: Compound concentration 1000.0 nM
Sequence of Phosphatidylinositol 4,5-bisphosphate 3-kinase catalytic subunit alpha isoform (Homo sapiens), P42336 [H1047Y] (P42336 whole entry H1047Y, canonical isoform): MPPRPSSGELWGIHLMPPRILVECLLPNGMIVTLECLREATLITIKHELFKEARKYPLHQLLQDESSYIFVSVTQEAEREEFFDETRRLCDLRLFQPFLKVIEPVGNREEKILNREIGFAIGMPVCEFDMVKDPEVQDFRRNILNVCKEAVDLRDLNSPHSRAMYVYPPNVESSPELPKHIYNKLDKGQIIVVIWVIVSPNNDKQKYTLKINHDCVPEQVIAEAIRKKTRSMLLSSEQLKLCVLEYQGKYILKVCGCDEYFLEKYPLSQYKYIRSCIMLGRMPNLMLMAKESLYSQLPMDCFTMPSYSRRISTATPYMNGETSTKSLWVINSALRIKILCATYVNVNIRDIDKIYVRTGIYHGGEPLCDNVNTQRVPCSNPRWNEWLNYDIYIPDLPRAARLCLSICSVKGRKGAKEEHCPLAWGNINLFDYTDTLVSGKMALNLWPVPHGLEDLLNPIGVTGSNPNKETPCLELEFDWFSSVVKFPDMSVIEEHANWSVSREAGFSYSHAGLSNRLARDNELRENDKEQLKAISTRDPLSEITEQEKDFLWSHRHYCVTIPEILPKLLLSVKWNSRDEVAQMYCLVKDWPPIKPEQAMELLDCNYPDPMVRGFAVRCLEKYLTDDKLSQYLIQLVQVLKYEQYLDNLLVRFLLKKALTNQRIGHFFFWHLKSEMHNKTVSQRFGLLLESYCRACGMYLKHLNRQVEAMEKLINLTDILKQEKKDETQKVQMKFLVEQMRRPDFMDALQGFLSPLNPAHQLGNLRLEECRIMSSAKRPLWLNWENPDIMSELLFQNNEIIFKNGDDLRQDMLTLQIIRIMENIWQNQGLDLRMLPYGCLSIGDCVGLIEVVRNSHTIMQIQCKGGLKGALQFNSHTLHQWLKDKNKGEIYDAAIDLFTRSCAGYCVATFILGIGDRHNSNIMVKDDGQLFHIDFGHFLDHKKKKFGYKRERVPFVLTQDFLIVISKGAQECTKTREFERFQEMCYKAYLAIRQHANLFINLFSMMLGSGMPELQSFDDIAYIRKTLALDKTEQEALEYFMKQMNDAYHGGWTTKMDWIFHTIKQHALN

[14] = target: Vascular endothelial growth factor receptor 2 (Homo sapiens) (UniProt P35968); settings: Compound concentration 1000.0 nM
[15] = target: Hormonally up-regulated neu tumor-associated kinase (Homo sapiens) (UniProt P57058); settings: Compound concentration 1000.0 nM
[16] = target: Mitogen-activated protein kinase 13 (Homo sapiens) (UniProt O15264); settings: Compound concentration 1000.0 nM
[17] = target: Tyrosine-protein kinase Lyn (Homo sapiens) (UniProt P07948); settings: Compound concentration 1000.0 nM
[18] = target: Beta-1 adrenergic receptor (Homo sapiens) (UniProt P08588); settings: Compound concentration 10.0 uM
[19] = target: Cyclin-dependent kinase 5 (Homo sapiens) (UniProt Q00535); settings: Compound concentration 1000.0 nM
Sequence of Cyclin-dependent kinase 5 (Homo sapiens) (Q00535 whole entry, looked up): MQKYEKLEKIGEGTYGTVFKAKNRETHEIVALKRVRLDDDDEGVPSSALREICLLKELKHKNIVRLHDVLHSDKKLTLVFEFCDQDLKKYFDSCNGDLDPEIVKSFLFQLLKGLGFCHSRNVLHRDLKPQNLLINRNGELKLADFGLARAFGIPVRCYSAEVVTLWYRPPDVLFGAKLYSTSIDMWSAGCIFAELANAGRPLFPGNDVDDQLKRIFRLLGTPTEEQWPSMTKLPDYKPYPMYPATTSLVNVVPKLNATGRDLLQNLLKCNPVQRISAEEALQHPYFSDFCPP

[20] = target: Macrophage colony-stimulating factor 1 receptor (Homo sapiens) (UniProt P07333); settings: Compound concentration 1000.0 nM
[21] = target: Serine/threonine-protein kinase PRP4 homolog (Homo sapiens) (UniProt Q13523); settings: Compound concentration 1000.0 nM
[22] = target: Leukocyte tyrosine kinase receptor (Homo sapiens) (UniProt P29376); settings: Compound concentration 1000.0 nM
[23] = target: Transient receptor potential cation channel subfamily M member 6 (Homo sapiens) (UniProt Q9BX84); settings: Compound concentration 1000.0 nM
[24] = target: Serine/threonine-protein kinase pim-1 (Homo sapiens) (UniProt P11309); settings: Compound concentration 1000.0 nM
[25] = target: Focal adhesion kinase 1 (Homo sapiens) (UniProt Q05397); settings: Compound concentration 1000.0 nM
[26] = target: Tyrosine-protein kinase JAK2 (Homo sapiens) (UniProt O60674); settings: Compound concentration 1000.0 nM
[27] = tested on: Tyrosine-protein kinase ABL1 (Homo sapiens), P00519 [H396P]; settings: Compound concentration 1000.0 nM
[28] = target: Serine/threonine-protein kinase D2 (Homo sapiens) (UniProt Q9BZL6); settings: Compound concentration 1000.0 nM
[29] = target: Cyclin-dependent kinase 11B (Homo sapiens) (UniProt P21127); settings: Compound concentration 1000.0 nM
[30] = target: Homeodomain-interacting protein kinase 1 (Homo sapiens) (UniProt Q86Z02); settings: Compound concentration 1000.0 nM
[31] = target: Calcium/calmodulin-dependent protein kinase type II subunit alpha (Homo sapiens) (UniProt Q9UQM7); settings: Compound concentration 1000.0 nM
[32] = target: Peripheral plasma membrane protein CASK (Homo sapiens) (UniProt O14936); settings: Compound concentration 1000.0 nM
[33] = target: Serine/threonine-protein kinase 17B (Homo sapiens) (UniProt O94768); settings: Compound concentration 1000.0 nM
[34] = target: Mitogen-activated protein kinase kinase kinase kinase 4 (Homo sapiens) (UniProt O95819); settings: Compound concentration 1000.0 nM
[35] = target: Tyrosine-protein kinase FRK (Homo sapiens) (UniProt P42685); settings: Compound concentration 1000.0 nM
[36] = target: Sodium-dependent noradrenaline transporter (Homo sapiens) (UniProt P23975); settings: Compound concentration 10.0 uM
[37] = target: Ephrin type-B receptor 1 (Homo sapiens) (UniProt P54762); settings: Compound concentration 1000.0 nM
[38] = target: Serine/threonine-protein kinase/endoribonuclease IRE1 (Homo sapiens) (UniProt O75460); settings: Compound concentration 1000.0 nM
[39] = target: Myosin-IIIb (Homo sapiens) (UniProt Q8WXR4); settings: Compound concentration 1000.0 nM
Sequence of Myosin-IIIb (Homo sapiens) (Q8WXR4 whole entry): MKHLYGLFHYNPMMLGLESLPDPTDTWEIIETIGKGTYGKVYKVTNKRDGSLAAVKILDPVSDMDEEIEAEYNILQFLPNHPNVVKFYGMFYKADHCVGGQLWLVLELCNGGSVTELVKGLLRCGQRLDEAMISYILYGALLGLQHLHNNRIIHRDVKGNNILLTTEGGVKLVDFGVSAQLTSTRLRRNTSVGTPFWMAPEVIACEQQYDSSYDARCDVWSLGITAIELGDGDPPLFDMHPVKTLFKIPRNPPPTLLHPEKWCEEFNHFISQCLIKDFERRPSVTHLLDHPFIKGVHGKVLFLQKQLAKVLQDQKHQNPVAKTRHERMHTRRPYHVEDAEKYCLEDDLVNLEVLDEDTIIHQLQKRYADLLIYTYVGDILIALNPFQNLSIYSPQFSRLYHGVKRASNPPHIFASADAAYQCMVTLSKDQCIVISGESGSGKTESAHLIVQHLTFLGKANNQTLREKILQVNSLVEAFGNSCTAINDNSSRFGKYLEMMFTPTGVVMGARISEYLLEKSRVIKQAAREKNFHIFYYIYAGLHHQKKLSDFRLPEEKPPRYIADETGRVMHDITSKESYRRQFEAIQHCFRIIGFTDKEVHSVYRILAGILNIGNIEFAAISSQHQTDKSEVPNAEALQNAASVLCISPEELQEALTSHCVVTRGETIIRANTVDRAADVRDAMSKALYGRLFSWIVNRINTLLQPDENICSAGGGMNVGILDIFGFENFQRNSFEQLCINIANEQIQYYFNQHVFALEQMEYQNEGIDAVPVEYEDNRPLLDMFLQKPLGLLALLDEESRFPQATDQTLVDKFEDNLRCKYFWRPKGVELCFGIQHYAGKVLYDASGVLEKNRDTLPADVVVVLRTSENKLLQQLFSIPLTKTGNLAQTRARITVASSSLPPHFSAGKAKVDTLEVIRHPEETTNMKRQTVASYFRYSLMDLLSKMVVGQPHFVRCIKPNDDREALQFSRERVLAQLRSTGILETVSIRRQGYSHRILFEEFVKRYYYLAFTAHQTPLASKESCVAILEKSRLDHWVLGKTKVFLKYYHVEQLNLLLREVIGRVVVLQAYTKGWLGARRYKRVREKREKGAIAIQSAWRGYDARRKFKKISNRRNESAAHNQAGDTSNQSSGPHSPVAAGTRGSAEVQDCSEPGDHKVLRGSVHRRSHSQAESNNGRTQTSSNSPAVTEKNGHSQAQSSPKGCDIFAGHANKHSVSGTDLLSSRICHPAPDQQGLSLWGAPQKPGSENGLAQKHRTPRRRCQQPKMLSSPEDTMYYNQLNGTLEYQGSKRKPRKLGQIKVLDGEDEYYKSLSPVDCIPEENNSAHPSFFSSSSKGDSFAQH

Sequence of G protein-coupled receptor kinase 4 (Homo sapiens) (P32298 whole entry, looked up): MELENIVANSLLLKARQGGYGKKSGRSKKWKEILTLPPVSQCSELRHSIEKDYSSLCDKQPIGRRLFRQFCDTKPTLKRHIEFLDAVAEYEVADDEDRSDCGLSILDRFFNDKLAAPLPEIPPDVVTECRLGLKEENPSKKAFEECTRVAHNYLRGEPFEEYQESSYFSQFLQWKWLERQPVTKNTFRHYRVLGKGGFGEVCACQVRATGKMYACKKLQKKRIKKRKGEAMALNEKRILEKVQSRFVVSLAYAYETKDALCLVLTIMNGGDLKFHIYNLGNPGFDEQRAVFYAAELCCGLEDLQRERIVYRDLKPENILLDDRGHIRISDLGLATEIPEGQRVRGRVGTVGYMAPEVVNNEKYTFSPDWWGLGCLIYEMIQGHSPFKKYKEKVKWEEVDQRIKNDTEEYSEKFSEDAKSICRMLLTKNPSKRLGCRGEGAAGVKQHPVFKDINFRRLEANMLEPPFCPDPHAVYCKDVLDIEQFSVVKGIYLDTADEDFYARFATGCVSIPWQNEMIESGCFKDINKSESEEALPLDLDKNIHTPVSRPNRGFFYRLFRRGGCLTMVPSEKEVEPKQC

N#CC1(c2ccccn2)CCN(Cc2cc(C(=O)N3CCCC3)c(=O)n3ccccc23)CC1
inactive: residual activity [1] 100% | residual activity [2] 86% | residual activity [3] 97% | residual activity [4] 80% | residual activity [5] 92% | residual activity [6] 100% | residual activity [7] 100% | residual activity [8] 92% | residual activity [9] 83% | residual activity [10] 87% | inhibition [11] -2.01% | residual activity [12] 80% | residual activity [13] 64% | residual activity [14] 92% | residual activity [15] 79% | residual activity [16] 89% | residual activity [17] 99% | inhibition [18] -5.76% | residual activity [19] 92% | residual activity [20] 86% | residual activity [21] 78% | residual activity [22] 90% | residual activity [23] 80% | residual activity [24] 100% | residual activity [25] 89% | residual activity [26] 85% | residual activity [27] 100% | residual activity [28] 85% | residual activity [29] 80% | residual activity [30] 77% | residual activity [31] 84% | residual activity [32] 100% | residual activity [33] 93% | residual activity [34] 87% | residual activity [35] 80% | inhibition [36] 40.5% | residual activity [37] 91% | residual activity [38] 100% | residual activity [39] 100%

N#CC1(c2ccccn2)CCN(Cc2cc(C(=O)O)c(=O)n3ccccc23)CC1 [MSD-M1PAM]
inactive: residual activity [1] 93% | residual activity [2] 68% | residual activity [3] 100% | residual activity [4] 96% | residual activity [5] 95% | residual activity [6] 100% | residual activity [7] 95% | residual activity [8] 93% | residual activity [9] 85% | residual activity [10] 100% | inhibition [11] -1% | residual activity [12] 75% | residual activity [13] 100% | residual activity [14] 79% | residual activity [15] 100% | residual activity [16] 100% | residual activity [17] 100% | inhibition [18] 16.2% | residual activity [19] 100% | residual activity [20] 100% | residual activity [21] 100% | residual activity [22] 100% | residual activity [23] 100% | residual activity [24] 99% | residual activity [25] 100% | residual activity [26] 96% | residual activity [27] 91% | residual activity [28] 99% | residual activity [29] 100% | residual activity [30] 100% | residual activity [31] 83% | residual activity [32] 100% | residual activity [33] 100% | residual activity [34] 87% | residual activity [35] 100% | inhibition [36] 24.7% | residual activity [37] 100% | residual activity [38] 81% | residual activity [39] 100%
